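Each compound was tested at five concentrations against cells in 96-well plates for 48 hours. GI50 = concentration required for 50% inhibition of growth. TGI marks complete inhibition of growth.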
Columns and labels:
Assay in all cases: DTP human tumour cell line panel, 48 h; in the data active = GI50 below about 0.43 µM; inactive = the rest
SK-MEL-28 melanoma = tested on: SK-MEL-28 melanoma
ACHN renal = tested on: ACHN renal
DU-145 prostate = tested on: DU-145 prostate
SF-268 CNS = tested on: SF-268 CNS
T-47D breast = tested on: T-47D breast
SK-MEL-5 melanoma = tested on: SK-MEL-5 melanoma
UACC-62 melanoma = tested on: UACC-62 melanoma
BT-549 breast = tested on: BT-549 breast
HS 578T breast = tested on: HS 578T breast
CCRF-CEM leukemia = tested on: CCRF-CEM leukemia
NCI/ADR-RES ovarian = tested on: NCI/ADR-RES ovarian
OVCAR-8 ovarian = tested on: OVCAR-8 ovarian
SF-295 CNS = tested on: SF-295 CNS
SF-539 CNS = tested on: SF-539 CNS
PC-3 prostate = tested on: PC-3 prostate
HT29 colon = tested on: HT29 colon
SW-620 colon = tested on: SW-620 colon
K-562 leukemia = tested on: K-562 leukemia
HL-60(TB) leukemia = tested on: HL-60(TB) leukemia
MCF7 breast = tested on: MCF7 breast
KM12 colon = tested on: KM12 colon
M14 melanoma = tested on: M14 melanoma
RPMI-8226 leukemia = tested on: RPMI-8226 leukemia
NCI-H23 lung = tested on: NCI-H23 lung
UO-31 renal = tested on: UO-31 renal
SK-MEL-2 melanoma = tested on: SK-MEL-2 melanoma
SK-OV-3 ovarian = tested on: SK-OV-3 ovarian
RXF 393 renal = tested on: RXF 393 renal
A549 NSCLC = tested on: A549 NSCLC
IGROV1 ovarian = tested on: IGROV1 ovarian
OVCAR-5 ovarian = tested on: OVCAR-5 ovarian
U251 CNS = tested on: U251 CNS
OVCAR-3 ovarian = tested on: OVCAR-3 ovarian
MDA-MB-435 = tested on: MDA-MB-435
LOX IMVI melanoma = tested on: LOX IMVI melanoma
SR leukemia = tested on: SR leukemia
786-0 renal = tested on: 786-0 renal
TK-10 renal = tested on: TK-10 renal
COLO 205 colon = tested on: COLO 205 colon
HCT-15 colon = tested on: HCT-15 colon
MDA-MB-231 breast = tested on: MDA-MB-231 breast
HCT-116 colon = tested on: HCT-116 colon
OVCAR-4 ovarian = tested on: OVCAR-4 ovarian
HOP-62 NSCLC = tested on: HOP-62 NSCLC
SNB-19 CNS = tested on: SNB-19 CNS
UACC-257 melanoma = tested on: UACC-257 melanoma
HCC-2998 colon = tested on: HCC-2998 colon
MALME-3M melanoma = tested on: MALME-3M melanoma
SNB-75 CNS = tested on: SNB-75 CNS
MOLT-4 leukemia = tested on: MOLT-4 leukemia
CAKI-1 renal = tested on: CAKI-1 renal
NCI-H226 lung = tested on: NCI-H226 lung
NCI-H460 lung = tested on: NCI-H460 lung
SN12C renal = tested on: SN12C renal
NCI-H522 lung = tested on: NCI-H522 lung
HOP-92 NSCLC = tested on: HOP-92 NSCLC

COc1ccc(-c2cc(/C=C3\C(=O)Nc4ccc(OC)cc43)[nH]n2)cc1
active: GI50 (MDA-MB-435) 0.317 µM
inactive: GI50 (SK-MEL-28 melanoma) > 100 µM | GI50 (ACHN renal) > 100 µM | GI50 (DU-145 prostate) > 100 µM | GI50 (SF-268 CNS) 27.4 µM | GI50 (T-47D breast) > 100 µM | GI50 (SK-MEL-5 melanoma) 4.46 µM | GI50 (UACC-62 melanoma) 6.43 µM | GI50 (BT-549 breast) > 100 µM | GI50 (HS 578T breast) 16.8 µM | GI50 (CCRF-CEM leukemia) > 100 µM | GI50 (NCI/ADR-RES ovarian) 31.8 µM | GI50 (OVCAR-8 ovarian) 19.5 µM | GI50 (SF-295 CNS) 2.89 µM | GI50 (SF-539 CNS) 6.67 µM | GI50 (PC-3 prostate) > 100 µM | GI50 (HT29 colon) 1.58 µM | GI50 (SW-620 colon) 0.912 µM | GI50 (K-562 leukemia) 0.479 µM | GI50 (HL-60(TB) leukemia) 0.821 µM | GI50 (MCF7 breast) 0.732 µM | GI50 (KM12 colon) 1.62 µM | GI50 (M14 melanoma) > 100 µM | GI50 (RPMI-8226 leukemia) > 100 µM | GI50 (NCI-H23 lung) > 100 µM | GI50 (UO-31 renal) > 100 µM | GI50 (SK-MEL-2 melanoma) 43.5 µM | GI50 (SK-OV-3 ovarian) 73.2 µM | GI50 (RXF 393 renal) 55 µM | GI50 (A549 NSCLC) > 100 µM | GI50 (IGROV1 ovarian) > 100 µM | GI50 (OVCAR-5 ovarian) > 100 µM | GI50 (U251 CNS) 31.5 µM | GI50 (OVCAR-3 ovarian) 68.9 µM | GI50 (LOX IMVI melanoma) 14 µM | GI50 (SR leukemia) 0.595 µM | GI50 (786-0 renal) > 100 µM | GI50 (TK-10 renal) > 100 µM | GI50 (COLO 205 colon) 4.53 µM | GI50 (HCT-15 colon) 0.687 µM | GI50 (MDA-MB-231 breast) > 100 µM | GI50 (HCT-116 colon) 9.08 µM | GI50 (OVCAR-4 ovarian) > 100 µM | GI50 (HOP-62 NSCLC) 10.6 µM | GI50 (SNB-19 CNS) 77.2 µM | GI50 (UACC-257 melanoma) > 100 µM | GI50 (HCC-2998 colon) > 100 µM | GI50 (MALME-3M melanoma) > 100 µM | GI50 (SNB-75 CNS) 3.19 µM | GI50 (MOLT-4 leukemia) > 100 µM | GI50 (CAKI-1 renal) > 100 µM | GI50 (NCI-H226 lung) > 100 µM | GI50 (NCI-H460 lung) 5.45 µM | GI50 (SN12C renal) > 100 µM | GI50 (NCI-H522 lung) 11 µM | GI50 (HOP-92 NSCLC) > 100 µM
25.5 µM: TGI (SNB-75 CNS)
26.1 µM: TGI (MDA-MB-435)
> 100 µM: TGI (SK-MEL-28 melanoma) | TGI (ACHN renal) | TGI (DU-145 prostate) | TGI (SF-268 CNS) | TGI (T-47D breast) | TGI (SK-MEL-5 melanoma) | TGI (UACC-62 melanoma) | TGI (BT-549 breast) | TGI (HS 578T breast) | TGI (CCRF-CEM leukemia) | TGI (NCI/ADR-RES ovarian) | TGI (OVCAR-8 ovarian) | TGI (SF-295 CNS) | TGI (SF-539 CNS) | TGI (PC-3 prostate) | TGI (HT29 colon) | TGI (SW-620 colon) | TGI (K-562 leukemia) | TGI (HL-60(TB) leukemia) | TGI (MCF7 breast) | TGI (KM12 colon) | TGI (M14 melanoma) | TGI (RPMI-8226 leukemia) | TGI (NCI-H23 lung) | TGI (UO-31 renal) | TGI (SK-MEL-2 melanoma) | TGI (SK-OV-3 ovarian) | TGI (RXF 393 renal) | TGI (A549 NSCLC) | TGI (IGROV1 ovarian) | TGI (OVCAR-5 ovarian) | TGI (U251 CNS) | TGI (OVCAR-3 ovarian) | TGI (LOX IMVI melanoma) | TGI (SR leukemia) | TGI (786-0 renal) | TGI (TK-10 renal) | TGI (COLO 205 colon) | TGI (HCT-15 colon) | TGI (MDA-MB-231 breast) | TGI (HCT-116 colon) | TGI (OVCAR-4 ovarian) | TGI (HOP-62 NSCLC) | TGI (SNB-19 CNS) | TGI (UACC-257 melanoma) | TGI (HCC-2998 colon) | TGI (MALME-3M melanoma) | TGI (MOLT-4 leukemia) | TGI (CAKI-1 renal) | TGI (NCI-H226 lung) | TGI (NCI-H460 lung) | TGI (SN12C renal) | TGI (NCI-H522 lung) | TGI (HOP-92 NSCLC)

Reference: PubChem BioAssay (NCI)
